Laboratory results taken from publication PMC11820219 (Nutrients, 2025).

How the values were obtained:
α-glucosidase [1] = target: T1, α-glucosidase (Saccharomyces cerevisiae, UniProt P53341); conditions: reported compound; cited from earlier work
Müller cells = conditions: high glucose; cited from earlier work
[2] = tested on: streptozocin-induced diabetic mice; parameters: method as in PMID 27687881; conditions: cited from earlier work
α-glucosidase [3] = target: T1, α-glucosidase; assay: fluorescence quenching of α-glucosidase (Stern–Volmer); format: binding
From the text: The mixture was scanned using fluorescence spectroscopy (SpectraMax i3x, Molecular Devices, LLC., San Jose, CA, USA). The excitation wavelength was set at 280 nm, and the emission wavelength at 300–500 nm, with excitation and emission slit widths of 5 nm. Then, the following Stern–Volmer dynamic collision quenching equations were applied to calculate the fluorescence quenching parameters, including the quenching constants (KSV), quenching rate constant (Kq), binding constant (Ka), and binding site number (n). The equations are described below:(2) F0/F=1+KSV[Q]=1+Kqτ0[Q] (3) lgF0−F/F=lgKa+nlg[Q]

[4] = tested on: AMPK signaling pathway (p-AMPK, ACC, GLUT4); assay: Western blotting of AMPK pathway proteins in high-glucose HepG2 cells; format: cell-based, human
Procedure: Protein samples of 20 µg were separated by sodium dodecyl sulfate polyacrylamide gel electrophoresis in the Bio-Rad electrophoresis apparatus (Liuyi Biotechnology Co., Ltd., Beijing, China), and then transferred to polyvinylidene fluoride membranes. The electrophoretic proteins were sealed with 5% skimmed milk at room temperature for 1 h, and the membranes were incubated overnight with primary antibodies, including AMPK, phospho-AMPK (p-AMPK), acetyl CoA carboxylase (ACC, EC 6.4.1.2), and glucose transporter 4 (GLUT4) at 4 °C. After washing the membrane with phosphate-buffered saline tween-20, the membranes were incubated with secondary antibodies at room temperature for 1 h.

α-glucosidase [5] = target: T1, α-glucosidase; assay: FT-IR secondary structure of α-glucosidase (amide I curve fitting); conditions: astragalin 100 µg/mL
From the text: The secondary conformation of α-glucosidase (1 U/mL) with or without sample treatment were detected with a Fourier transform infrared spectrometer (FT-IR) (VERTEX 7.0, BRUKER Co., Ltd., Bremen, Germany), by fitting the infrared amide type I curve (1600–1700 cm^−1).

HepG2 cells = assay: HepG2 cell survival rate (CCK-8); format: cell-based, human; conditions: 0–200 µg/mL, 24 h
Procedure: (§1) HepG2 cells at 10 to 40 generations were configured at a concentration of 4 × 10^5/mL. The cells suspension 100 µL was inoculated into a culture plate with DMEM (10 mL) containing glucose 4.5 g/L, 10% FBS, penicillin (1000 U/mL), and streptomycin ([…]), and cultivated in a 37 °C, 5% CO2 incubator.
Each sample was added to a 96-well plate with HepG2 cells and incubated in a 37 °C, 5% CO2 incubator for 24 h. After washing twice with PBS, the CCK-8 solution 100 µL was added, and incubated for another 4 h. The absorbance at 450 nm was measured using a Microplate reader (Bio TekGen5, BioTech Instruments, Co., Ltd., Winooski, VT, USA). The cells’ survival rates were calculated based on the formula as shown below:Cell survival rate (%) = A samples/A black control × 100%(5)

high-glucose HepG2 cells = assay: high-glucose (insulin-resistant) HepG2 model: glucose, TC, TG; format: cell-based, human; conditions: for hypoglycemic effect (glucose level) compared between concentrations: 80 µg/mL, superior to acarbose positive control 5 µg/mL
Procedure: as §1
When the cells were increased to about 80%, insulin at a concentration of 10^−5 mmol/L was treated for 24 h to induce the formation of insulin-resistant cells. […] After the treatment of 24 h with different samples, the glucose, TC, and TG content in the HepG2 cell supernatant was measured with glucose, TC, and TG assay kits.

[6] = different concentrations, high-glucose HepG2 cells

T1 sequence (P53341 whole entry): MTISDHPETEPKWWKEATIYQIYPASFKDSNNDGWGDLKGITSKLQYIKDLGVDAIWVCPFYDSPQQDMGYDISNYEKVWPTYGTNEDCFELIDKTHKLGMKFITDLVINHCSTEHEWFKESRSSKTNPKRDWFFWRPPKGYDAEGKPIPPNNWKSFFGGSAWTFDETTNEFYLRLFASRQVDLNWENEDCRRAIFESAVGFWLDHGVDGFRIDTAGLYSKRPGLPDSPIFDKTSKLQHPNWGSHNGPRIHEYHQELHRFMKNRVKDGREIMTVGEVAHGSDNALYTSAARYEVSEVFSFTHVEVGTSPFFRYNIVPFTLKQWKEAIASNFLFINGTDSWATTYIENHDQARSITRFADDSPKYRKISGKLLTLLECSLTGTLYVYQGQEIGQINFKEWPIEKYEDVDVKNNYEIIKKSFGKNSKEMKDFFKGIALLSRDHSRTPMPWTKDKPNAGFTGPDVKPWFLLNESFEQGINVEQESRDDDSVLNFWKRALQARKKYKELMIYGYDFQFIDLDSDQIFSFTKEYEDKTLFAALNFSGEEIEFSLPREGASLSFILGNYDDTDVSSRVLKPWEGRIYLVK

Structure (SMILES): COc1cc(OC)c2c(ccc3cc(OC)c(O)cc32)c1 [batatasin I]
- IC50 (α-glucosidase [1]): 2.55 mM

Structure (SMILES): O=c1c(O[C@@H]2O[C@H](CO)[C@@H](O)[C@H](O)[C@H]2O)c(-c2ccc(O)cc2)oc2cc(O)cc(O)c12 [astragalin, kaempferol-3-O-β-D-glucopyranoside]
- vascular endothelial growth factor over-expression (Müller cells): decreased the over-expression
- hypoglycemic effects in diabetic mice [2]: improved the glucose tolerance and reduced the level of glucose
- KSV (quenching constant) (α-glucosidase [3]; 298 K): 9.093 ×10^3 Lmol^−1
- n (binding site number) (α-glucosidase [3]; 298 K): 1.238
- KSV (quenching constant) (α-glucosidase [3]; 304 K): 7.903 ×10^3 Lmol^−1
- n (binding site number) (α-glucosidase [3]; 304 K): 1.1905
- KSV (quenching constant) (α-glucosidase [3]; 310 K): 7.061 ×10^3 Lmol^−1
- n (binding site number) (α-glucosidase [3]; 310 K): 0.8446
- maximum fluorescence emission wavelength of α-glucosidase with astragalin (α-glucosidase [3]; free enzyme around 346 nm, excitation 280 nm, 298 K): 349 nm
- Kq values (α-glucosidase [3]; under three temperature conditions, compared with maximum diffusion collision quenching constant): higher than 2.0 × 10^10 Lmol^−1 s^−1
- GLUT4 protein expression level ([4]; 20 µg/mL): significantly increased
- ACC protein expression level ([4]; 80 µg/mL): significantly down-regulated
- p-AMPK protein expression level ([4]; 80 and 200 µg/mL): up-regulated
- β-turn content of α-glucosidase with astragalin (α-glucosidase [5]; without astragalin 11.72%): 19.30%
- β-sheet content of α-glucosidase with astragalin (α-glucosidase [5]; without astragalin 11.94%): 4.71%
- random coil content of α-glucosidase with astragalin (α-glucosidase [5]; without astragalin 21.08%): 38.79%
- CCK-8 cell survival (HepG2 cells): within the safe range
- hypoglycemic effect (glucose level) compared between concentrations (high-glucose HepG2 cells): the activity was the strongest
- hypoglycemic effect (glucose level) compared between concentrations (high-glucose HepG2 cells; listed as Astragalin): best hypoglycemic effect
- glucose level in the cells (high-glucose HepG2 cells; 20, 80, and 200 µg/mL, 24 h, insulin-induced high-glucose HepG2): reduced the glucose level in the cells
- TC level (high-glucose HepG2 cells; [6]): reduced the levels of TC
- TG level (high-glucose HepG2 cells; [6]): reduced the levels of TC and TG
